Source: ChEMBL document CHEMBL1201862, “PubChem BioAssay data set” (2004)
Active and inactive are the calls of the source.

How the values were obtained:
[1] = THP-1 cell cytotoxicity, dose response, cytotoxicity control for non-replicating M. tuberculosis project (AID 489025); type: functional
[2] = cells; type: functional, cell-based
[3] = Vero E6 cell cytotoxicity, dose response, cytotoxicity control for non-replicating M. tuberculosis project, secondary assay (AID 492998); type: functional, VeroE6; conditions: Vero C1008
[4] = cells; type: functional
[5] = cells; type: functional, cell-based; remark: listed apart in the source
[6] = HepG2 cell cytotoxicity, dose response, cytotoxicity control for non-replicating M. tuberculosis project (AID 489018); type: functional; conditions: Mycobacterium tuberculosis
[7] = test system: INS1; assay: INS-1E survival protection against cytokine death – cell-based, luminescence, retest, dose response (AID 449756); type: functional; conditions: Rattus norvegicus;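 note: cell death triggered by IL-1 beta plus TNF-alpha plus IFN-gamma mixture; protective hits raise ATP signal compared with cytokine alone wells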
[8] = test system: Vero; assay: mammalian cell viability reduction – secondary assay, cytotoxicity control for West Nile virus antiviral project, dose response (AID 1650); type: functional; conditions: Chlorocebus sabaeus
[9] = NIH-3T3 fibroblast cytotoxicity, dose response, cytotoxicity control, cell-based, fluorescence, Alamar Blue, secondary assay (AID 2327); type: functional;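 note: NIH-3T3 mouse fibroblasts cultured with fluconazole at 8 µg/mL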
[10] = fluconazole-exposed Candida albicans growth modulators – fluorescence, retest, confirmation (AID 2467); type: functional, cell-based
[11] = target: Cytochrome P450 2C19 (Homo sapiens, UniProt P33261); assay: qHTS Assay for Inhibitors and Substrates of Cytochrome P450 2C19. [Related pubchem assays: 410 ]; type: ADME; conditions: read-out: Potency
[12] = M. tuberculosis growth inhibition, HTS (AID 449762); type: functional
[13] = non-specific 3'UTR reporter inhibition in Clone20-Shn3RL – cell-based, Renilla luciferase, cherry-picked, counter-screen for Shn3 inhibitor project, dose response (AID 624133); type: functional
[14] = reduction of Shn3 3'UTR-driven luciferase in osteoblasts – cell-based, Clone20 osteoblasts, firefly luciferase, cherry-picked, dose response (AID 624132); type: functional;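 note: firefly luciferase luminescence from reporter carrying the Shn3 3'UTR in osteoblasts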
[15] = target: T1, COUP transcription factor 2 (Homo sapiens, UniProt P24468); assay: Luminescence-based cell-based high throughput dose response assay to identify inhibitors of COUP-TFII (NR2F2).; type: functional;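 note: HEK293 cells transiently cotransfected with COUP-TFII expression vector and reporter; luciferase reporter luminescence driven by COUP-TFII from the pX2-168 reporter plasmid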
T1 sequence (P24468 whole entry): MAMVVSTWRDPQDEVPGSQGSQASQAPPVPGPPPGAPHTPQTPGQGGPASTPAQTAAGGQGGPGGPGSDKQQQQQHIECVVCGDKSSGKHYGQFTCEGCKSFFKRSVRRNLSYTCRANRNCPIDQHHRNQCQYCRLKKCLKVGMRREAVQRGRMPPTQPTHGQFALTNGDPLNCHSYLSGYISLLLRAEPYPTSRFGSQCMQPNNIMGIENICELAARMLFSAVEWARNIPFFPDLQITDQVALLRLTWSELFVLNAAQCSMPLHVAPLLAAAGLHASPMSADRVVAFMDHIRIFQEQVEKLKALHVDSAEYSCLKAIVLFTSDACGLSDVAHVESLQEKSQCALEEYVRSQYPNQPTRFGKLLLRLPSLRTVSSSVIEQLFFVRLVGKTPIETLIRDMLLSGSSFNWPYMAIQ

[16] = target: Galanin receptor type 2 (Homo sapiens, UniProt O43603); assay: Dose Response cell-based high-throughput screening assay to identify antagonists of galanin receptor 2 (GALR2). [Related pubchem assays: 828, 866 ]; type: functional
[17] = loss of viability in HepG2 cells – cell-based, CellTiter-Glo, cherry-picked, cytotoxicity control for Shn3 inhibitor project, dose response (AID 624134); type: functional
[18] = viability loss in HEK293T cells – cell-based, ATP luminescence, dry powder, set 3, cytotoxicity control, dose response (AID 743131); type: functional; conditions: HEK293
[19] = viability loss in HepG2 hepatoma cells – cell-based, ATP luminescence, dry powder, set 2, cytotoxicity control, dose response (AID 743129); type: functional
[20] = test system: Vero; assay: inhibition of WNV-induced cytopathic effect – cell-based, CPE readout (AID 1621); type: functional; conditions: Chlorocebus sabaeus

Cytochrome P450 2C19, sequence (P33261 whole entry): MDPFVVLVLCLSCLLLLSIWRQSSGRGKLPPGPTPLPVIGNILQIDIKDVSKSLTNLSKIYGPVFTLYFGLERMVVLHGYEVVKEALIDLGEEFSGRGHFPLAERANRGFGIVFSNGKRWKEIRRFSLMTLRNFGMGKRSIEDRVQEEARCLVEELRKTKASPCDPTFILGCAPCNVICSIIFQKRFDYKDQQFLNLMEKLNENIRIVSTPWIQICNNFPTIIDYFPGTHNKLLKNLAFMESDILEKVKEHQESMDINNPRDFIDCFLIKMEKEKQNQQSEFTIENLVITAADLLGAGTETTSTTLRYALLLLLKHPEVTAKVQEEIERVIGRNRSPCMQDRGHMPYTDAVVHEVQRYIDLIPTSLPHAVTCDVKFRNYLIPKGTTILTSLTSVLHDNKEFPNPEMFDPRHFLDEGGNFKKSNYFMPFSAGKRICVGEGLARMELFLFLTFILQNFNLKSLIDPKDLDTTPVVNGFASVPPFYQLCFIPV
Galanin receptor type 2, sequence (O43603 whole entry): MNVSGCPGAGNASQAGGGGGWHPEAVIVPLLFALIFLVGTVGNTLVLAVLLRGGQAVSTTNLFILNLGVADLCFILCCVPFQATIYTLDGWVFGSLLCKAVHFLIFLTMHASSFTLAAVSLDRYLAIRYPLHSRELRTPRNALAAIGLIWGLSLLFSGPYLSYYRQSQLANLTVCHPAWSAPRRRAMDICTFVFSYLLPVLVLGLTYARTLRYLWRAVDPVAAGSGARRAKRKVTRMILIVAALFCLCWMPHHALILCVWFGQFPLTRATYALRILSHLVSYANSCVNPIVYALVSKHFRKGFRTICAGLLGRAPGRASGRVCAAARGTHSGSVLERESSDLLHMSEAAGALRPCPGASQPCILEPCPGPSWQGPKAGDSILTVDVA

**Q.** What does the source list for `O=C(N/N=C(\c1ccccc1)c1ccccn1)c1cccc([N+](=O)[O-])c1`?
**A.** CC50 [1]: 0.394 µM (active); EC50 [2]: 4.64 µM (active); CC50 [3]: 1.61 µM (active); IC50 [4]: 1.06 µM (active); EC50 [5]: > 350 µM (not active); CC50 [6]: 6.88 µM (active); AC50 [7]: 0.535 µM (active); CC50 [8]: 1.73 µM (active); EC50 [9]: 155 µM (inconclusive); EC50 [10]: 3.75 µM (active)

**Q.** For `O=c1cc(-c2cccc(O)c2)oc2c(O)c(O)ccc12`, which AC50 [11] is on record?
**A.** 15.8 µM (inconclusive)

**Q.** With `CC(=O)CCSc1ncnc2sc(-c3ccccc3)cc12` as the compound, how does the IC50 [12] read?
**A.** > 100 µM (active)

**Q.** Which AC50 [13] does the source give for `CC(=O)c1c(C)[nH]c(C(=O)OCC(=O)Nc2ccc(Cl)cc2[N+](=O)[O-])c1C` here?
**A.** 13.6 µM (active)

**Q.** What about the AC50 [7] of the same compound?
**A.** 1.98 µM (active)

**Q.** What about the AC50 [14] of the same compound?
**A.** 0.325 µM (active)

**Q.** And the IC50 [15]?
**A.** 6.5 µM (active)

**Q.** What about the IC50 [16] of the same compound?
**A.** > 42 µM (not active)

**Q.** And the AC50 [17]?
**A.** 53.2 µM (active)

**Q.** For `CCOC(=O)c1c(NC(=O)CN2CCN(C)CC2)sc(C)c1-c1ccc(C)cc1`, which AC50 [18] is on record?
**A.** 1.74 µM (active)

**Q.** And the AC50 [19]?
**A.** 16.7 µM (active)

**Q.** Which IC50 [20] does the source give for `Cc1cc(C)cc(SCc2noc(C(=O)NCCN(C)C)c2C(=O)NCCN(C)C)c1` here?
**A.** 26.9 µM (active)
